Where “and” joins values, the source holds several entries; their conditions need not be identical. Identical values can stand only once. Counter-ions that a name gives are not always drawn.
Tests used:
[1] = Metabolic profiling of 14C-3APS in mice; type: in vivo, male CD-1 mice
Method: (§1) Three single dose studies were conducted in mice, rats and dogs to determine the metabolic profile of ^14C-3APS in plasma, urine and feces. In the first study, twenty-seven male CD-1 mice received a single dose of 100 mg/kg (20 μCi/animal) of ^14C-3APS by oral gavage. Blood samples (3 animals/time point) were collected for 12 hr following drug administration while urine and feces (3 animals/time point) samples were collected for 96 hr. In the second study, eight male Sprague-Dawley rats received a single dose of 100 mg/kg (50 μCi/animal) of ^14C-3APS by oral gavage while in the third study, three male Beagle dogs received a single dose of 100 mg/kg (30 μCi/kg) of ^14C-3APS by oral gavage. For the rat and dog studies, blood samples were collected for 24 hr following drug administration while urine and feces samples were collected for 72 hr. All samples were analyzed for total radioactivity using appropriate sample preparation procedures and scintillation counting. Plasma and urine samples were also analyzed for 3APS and 3APS metabolites (2-carboxyethanesulfonic acid, 3-hydroxy-1-propanesulfonic acid and 3-acetylamino-1-propanesulfonic acid) concentrations using qualified HPLC and MS/MS methods.

[2] = Metabolic profiling of 14C-3APS in rats; type: in vivo, male Sprague-Dawley rats
Method: as §1

[3] = Metabolic profiling of 14C-3APS in dogs; type: in vivo, male Beagle dogs
Method: as §1

[4] = Absorption, excretion and plasma kinetics of 14C-3APS in humans; type: in vivo, human
From the text: Following the identification of 3APS metabolites, plasma and urine samples from this human AME study were reanalyzed for 3APS and 3APS metabolite (2-carboxyethanesulfonic acid, 3-hydroxy-1-propanesulfonic acid and 3-acetylamino-1-propanesulfonic acid) concentrations using qualified HPLC and MS/MS methods to determine the metabolic profile of ^14C-3APS in human.

[5] = Single oral and IV administration of 14C-3APS to rats; type: in vivo, male Sprague-Dawley rats; conditions: for AUC0-∞ / AUC(0-inf): 100 mg/kg 14C-3APS, rats, 100 mg/kg; for AUC(0-inf): male, Sprague-Dawley, rat, plasma
Method: The purpose of this study was to investigate the absorption, metabolism and excretion profiles of ^14C-3APS following a single intravenous bolus and oral administration to rats. Thirty-six male Sprague-Dawley rats received a single 100 mg/kg (˜50 μCi/animal) dose of ^14C-3APS by an IV bolus injection (water or isotonic saline solution) and an additional 36 male rats received the same dose level by oral gavage (in water). Blood, urine, feces, brain and CSF samples were collected for up to 72 hr following dose administration. Plasma, urine, brain and CSF concentrations of 3APS and 2-carboxyethanesulfonic acid (3APS major metabolite) were measured using LC and MS/MS detection method. Plasma, urine, feces, brain and CSF samples were analyzed for total radioactivity using appropriate sample preparation procedures and scintillation counting.

[6] = Mouse whole blood stability; type: in vitro ADME; conditions: 37° C.
Method: (§2) Test compounds were incubated for a total of 240 minutes at 37° C. in whole mouse and whole human blood. The compounds were added at time-point 0 and sample aliquots were withdrawn at each time point (usually 0, 60 and 240 minutes). The samples were extracted using protein precipitation. Analysis of extracted samples was achieved using HPLC with MS detection. Several types of HPLC columns and mobile phase were used depending of the polarity of the compound. The compound stability was determined by the % of compound remaining at 240 minutes (peak response of compound at 240 minutes/peak response at 0 minutes×100).

[7] = Bioavailability of exemplary compounds in mice (3APS quantified in plasma); type: in vivo; conditions: compared with 3APS
Method: Selected exemplary compounds were tested for bioavailability in mice. Bioavailability estimates are performed for 3APS after administration of molar equivalent the selected compounds. […] The animals are anesthetized with isoflurane before blood collection (approximately 45 sec). Samples are collected at 5, 30, 60, 120, 180, 240 and 360 min post intravenous administration and at 15, 30, 60, 120, 180, 240 and 360 min post oral administration. One animal is used to obtain a baseline sample (pre-dose sample). Blood samples are collected into Sarstedt™ micro tubes (EDTA KE/1.3 ml), kept on ice until centrifugation at 4° C. at a minimum speed of 3000 rpm (1620 G) for 10 min. Plasma samples are transferred into Eppendorf™ tubes, immediately placed on dry ice and stored at −80° C. Plasma samples are stored frozen at […] pending analysis.
Compounds in mouse plasma are extracted using protein precipitation. Quantitation of 3APS in mouse plasma matrix is achieved using LC-MS detection. Sample concentration is calculated using a calibration curve.

[8] = PK brain and plasma levels of oral Compound A2 and 3-APS in mice; type: in vivo; conditions: oral 0.18 mmol/kg
Method: Compounds A2 and 3-aminopropanesulfonic acid were tested for pharmacokinetic parameters in mice. Parmacokinetic parameters (Cmax, Tmax, T½, AUC) are evaluated for 3APS after administration of a molar equivalent of each compound. Blood samples (approximately 1 ml) and brain samples are collected from each of 3 animals at time points 5, 15, 30 minutes, 1, 2, 4, 6, 12, and 24 hours. […] A 2-fold increase in plasma concentration (Cmax) of 3-APS was observed when orally administering Compound A2 compared to 3-APS.

[9] = Human whole blood stability; type: in vitro ADME; conditions: 37° C.
Method: as §2

[10] = Mouse plasma, analyte after single oral 100 mg/kg 14C-3APS
[11] = male, CD-1, mouse, plasma, po, 100 mg/kg, Mouse plasma, analyte after single oral 100 mg/kg 14C-3APS
[12] = Rat plasma, analyte after single oral 100 mg/kg 14C-3APS
[13] = male, Sprague-Dawley, rat, plasma, po, 100 mg/kg, Rat plasma, analyte after single oral 100 mg/kg 14C-3APS
[14] = IV, individual animals 1001-1004
[15] = PO, individual animals 3001-3004
[16] = Mouse plasma, single oral 100 mg/kg 14C-3APS
[17] = Rat plasma, single oral 100 mg/kg 14C-3APS
[18] = Dog plasma, single oral 100 mg/kg 14C-3APS

O=C(O)CCS(=O)(=O)O [2-carboxyethanesulfonic acid]
AUC0-τ [1, 10]: 7.26 µmol·min/mL | AUC∞ [1, 10]: 7.56 µmol·min/mL | % of Total Radioactivity, Plasma ([1]; Mouse, AUC0-∞ analyte/AUC total radioactivity, single oral 100 mg/kg 14C-3APS): 30% | % of Total Radioactivity, Urine ([1]; Mouse, amount excreted, single oral 100 mg/kg 14C-3APS, 100 mg/kg): 62% | Tmax [1, 11]: 2 h | half-life [1, 11]: ~2 h | Cmax ([1]; male, CD-1, Mouse plasma, analyte (3APS or metabolite) after single oral 100 mg/kg 14C-3APS): 18 µM | AUC0-τ [2, 12]: 12.7 µmol·min/mL | AUC∞ [2, 12]: 13.6 µmol·min/mL | T1/2 ([2]; Rat plasma, analyte after single oral 100 mg/kg 14C-3APS, 100 mg/kg): 3.99 h | % of Total Radioactivity, Plasma ([2]; Rat, AUC0-∞ analyte/AUC total radioactivity, single oral 100 mg/kg 14C-3APS): 30% | % of Total Radioactivity, Urine ([2]; Rat, amount excreted, single oral 100 mg/kg 14C-3APS): 62% | Tmax [2, 13]: 4 h | half-life [2, 13]: ~4 h | Cmax ([2]; male, Sprague-Dawley, Rat plasma, analyte (3APS or metabolite) after single oral 100 mg/kg 14C-3APS): 23.4 µM | AUC0-τ ([3]; Dog plasma, analyte after single oral 100 mg/kg 14C-3APS): 30.5 µmol·min/mL | % of Total Radioactivity, Urine ([3]; Dog, amount excreted, single oral 100 mg/kg 14C-3APS, 100 mg/kg): 77% | Tmax ([3]; male, Beagle, dog, plasma, po, 100 mg/kg, Dog plasma, analyte after single oral 100 mg/kg 14C-3APS): 12 h | Cmax ([3]; male, Beagle, Dog plasma, analyte (3APS or metabolite) after single oral 100 mg/kg 14C-3APS): 31.2 µM | time of maximum plasma concentration ([4]; healthy subjects, analyte after oral 14C-3APS): 6.5 h | % of total radioactivity in plasma based on AUC0-τ ([4]; healthy subjects, oral 14C-3APS): 49% | % of total amount of radioactivity excreted in urine ([4]; human urine): 79% | AUC0-∞ [5, 14]: 144 µM·h and 184 µM·h and 125 µM·h | % of total radioactivity (AUC0-∞ analyte/AUC total radioactivity) [5, 14]: 6.5% and 9.1% and 9.8% and 9.9% | AUC0-∞ [5, 15]: 153 µM·h and 177 µM·h and 229 µM·h | % of total radioactivity (AUC0-∞ analyte/AUC total radioactivity) [5, 15]: 26.5% and 21.4% and 28.2% and 29.3% | AUC(0-inf) ([5]; iv, Mean): 140 µM·h | AUC(0-inf) ([5]; iv, individual animals 1001-1004): 105 µM·h | AUC(0-inf) ([5]; po, Mean): 198 µM·h | AUC(0-inf) ([5]; po, individual animals 3001-3004): 232 µM·h

CC(C)[C@H](N)C(=O)NCCCS(=O)(=O)O [Compound A2]
Blood stability (% of compound remaining after 240 min.) Mouse Blood [6]: ++ (++: 30-75%) | effect on bioavailability of 3APS [7]: increasing the bioavailability of 3APS | Brain concentration of 3-APS [8]: observed

NCCCC[C@H](N)C(=O)NCCCS(=O)(=O)O [Compound A4]
Blood stability (% of compound remaining after 240 min.) Mouse Blood [6]: +++ (+++: >75%) | Blood stability (% of compound remaining after 240 min.) Human Blood [9]: + (+: <30%) | effect on bioavailability of 3APS [7]: increasing the bioavailability of 3APS

N[C@@H](CO)C(=O)NCCCS(=O)(=O)O [Compound A7]
Blood stability (% of compound remaining after 240 min.) Mouse Blood [6]: +++ (+++: >75%) | Blood stability (% of compound remaining after 240 min.) Human Blood [9]: +++ (+++: >75%) | effect on bioavailability of 3APS [7]: increasing the bioavailability of 3APS

N[C@@H](COCc1ccccc1)C(=O)NCCCS(=O)(=O)O [Compound A18]
Blood stability (% of compound remaining after 240 min.) Mouse Blood [6]: + (+: <30%) | Blood stability (% of compound remaining after 240 min.) Human Blood [9]: + (+: <30%) | effect on bioavailability of 3APS [7]: increasing the bioavailability of 3APS

CC(OC(=O)NCCCS(=O)(=O)O)OC(=O)c1ccccc1 (centres unmarked) [Compound C16, 4-aza-7-methyl-6,8,-dioxa-5,9,-dioxo-9-phenyl-1-nonanesulfonic Acid Sodium Salt]
Blood stability (% of compound remaining after 240 min.) Mouse Blood [6]: + (+: <30%) | Blood stability (% of compound remaining after 240 min.) Human Blood [9]: ++ (++: 30-75%)

CC(C)(C)C(=O)OC(OC(=O)NCCCS(=O)(=O)O)C1CCCCC1 (centres unmarked) [Compound C20]
Blood stability (% of compound remaining after 240 min.) Mouse Blood [6]: + (+: <30%) | Blood stability (% of compound remaining after 240 min.) Human Blood [9]: ++ (++: 30-75%)

CC(=O)OC(OC(=O)NCCCS(=O)(=O)O)C(C)C (centres unmarked) [Compound C22]
Blood stability (% of compound remaining after 240 min.) Mouse Blood [6]: + (+: <30%) | Blood stability (% of compound remaining after 240 min.) Human Blood [9]: ++ (++: 30-75%)

CC(C)C(OC(=O)NCCCS(=O)(=O)O)OC(=O)C(C)(C)C (centres unmarked) [Compound C23]
Blood stability (% of compound remaining after 240 min.) Mouse Blood [6]: + (+: <30%) | Blood stability (% of compound remaining after 240 min.) Human Blood [9]: ++ (++: 30-75%)

CC(=O)OC(OC(=O)NCCCS(=O)(=O)O)C(C)(C)C (centres unmarked) [Compound C24]
Blood stability (% of compound remaining after 240 min.) Mouse Blood [6]: + (+: <30%) | Blood stability (% of compound remaining after 240 min.) Human Blood [9]: ++ (++: 30-75%)

NCCCS(=O)(=O)O [^14C-3APS]
Total Radioactivity AUC0-τ [1, 16]: 24.4 μmol eq · min/mL | Total Radioactivity AUC∞ [1, 16]: 25.0 μmol eq · min/mL | % of the dose excreted in urine as total radioactivity ([1]; mouse, on average in all species): 60% | Total Radioactivity AUC0-τ [2, 17]: 43.3 μmol eq · min/mL | Total Radioactivity AUC∞ [2, 17]: 45.2 μmol eq · min/mL | % of the dose excreted in urine as total radioactivity ([2]; rat, on average in all species): 60% | Total Radioactivity AUC0-τ [3, 18]: 45.4 μmol eq · min/mL | Total Radioactivity AUC∞ [3, 18]: 108 μmol eq · min/mL | % of the dose excreted in urine as total radioactivity ([3]; dog, on average in all species): 60% | AUC0-∞ Total Radioactivity ([5]; IV, Mean): 1591 nmol eq · h/mL | AUC0-∞ Total Radioactivity [5, 14]: 1625 nmol eq · h/mL and 1588 nmol eq · h/mL and 1883 nmol eq · h/mL and 1266 nmol eq · h/mL | AUC0-∞ Total Radioactivity ([5]; PO, Mean): 749 nmol eq · h/mL | AUC0-∞ Total Radioactivity [5, 15]: 874 nmol eq · h/mL and 714 nmol eq · h/mL and 628 nmol eq · h/mL and 781 nmol eq · h/mL

From patent publication US11020360B2, “Methods, compounds, compositions and vehicles for delivering 3-amino-1-propanesulfonic acid” (Bellus Health, Inc., priority 2006, dated 2021)
